For 56 molecules, AC35 results are on record in PubChem BioAssay AID720587 (Broad Institute, 2013).

SMILES strings stand for the structures. Several values for one entry are separate records, joined by “and”; a condition that tells them apart may be missing. Equal values may be shown once.

The assay concerns A673 Ewing sarcoma viability, CellTiter-Glo ATP luminescence, 72 h. As to the kind of experiment: EWS/Fli1-dependent A673 cell killing, confirmation, CellTiter-Glo luminescence, cherry-pick retest (AID 720587). On the technique in general: ATP-based viability assays read luminescence as a measure of living cells.

For `C[C@H]1CN([C@@H](C)CO)C(=O)Cc2cc(NC(=O)CCCCCC(=O)Nc3ccccc3N)ccc2O[C@H]1CN(C)Cc1ccc(Oc2ccccc2)cc1`, the AC35 is 6.08 µM.
The same measure for `Cc1nc(N)nc(N)c1CCCc1ccc(Cl)c(Cl)c1`: 2.8 µM; for `CC1(C)N=C(N)N=C(N)N1c1ccc(CCCCc2ccccc2)cc1`: 0.65 µM; for `C[C@@H]1CCCCO[C@H](CN(C)Cc2ccc(C(F)(F)F)cc2)[C@H](C)CN([C@H](C)CO)C(=O)c2cc(NC(=O)CCCN(C)C)ccc2O1`: 7.73 µM.
The same measure for `COc1ccc(/C=C(/C(=O)c2cccs2)N2C=CC=CC2=C(C#N)C#N)cc1`: 3.97 µM.
The same measure for `CC(=O)OC1CC(OC2C(O)CC(OC3C(O)CC(OC4CCC5(C)C(CCC6C5CCC5(C)C(C7=CC(=O)OC7)C(O)CC65O)C4)OC3C)OC2C)OC(C)C1OC1OC(CO)C(O)C(O)C1O` (stereo unspecified): 1.26 µM; for `Cc1cc(C)cc(C(=O)NC(=S)Nc2ccc(Cc3ccncc3)cc2)c1`: 14.2 µM.
For `O=C1Nc2cc(C(=O)NCCN3CCCCCC3)ccc2S/C1=C\c1ccccc1`, the AC35 is 8.37 µM.
`COc1ccc(C2c3cc4c(cc3OC(NNC(N)=O)C2C)OCO4)cc1` (stereo unspecified): the AC35 is 12.4 µM.
The same measure for `C[C@@H]1CN([C@H](C)CO)C(=O)c2cc(NC(=O)Nc3ccccc3)ccc2O[C@@H]1CN(C)Cc1ccc(C(=O)Nc2ccccc2N)cc1`: 9.7 µM; for `C/C(=N\NC(=O)c1n[nH]c2c1CCC2)c1cccs1`: 19.3 µM.
The result for `O=C(Nc1ccc(F)cc1)N1CCCCN2[C@@H](CO)[C@H](c3ccc(C4=CCCCC4)cc3)[C@@H]2C1` reads 10.2 µM; that for `CC(C)(C)c1ccc(Oc2ccc(N)cn2)cc1`, 5.13 µM.
The result for `C[C@H](CO)N1C[C@H](C)[C@H](CN(C)CC2CCCCC2)Oc2ccc(NC(=O)Nc3cccc4ccccc34)cc2C1=O` reads 18.7 µM; that for `COc1ccc(S(=O)(=O)Nc2cccc3c2O[C@H](CN(C)Cc2ccc(C(=O)Nc4ccccc4N)cc2)[C@H](C)CN([C@@H](C)CO)C3=O)cc1`, 5.46 µM; that for `O=C(C1CC1)N1C[C@@H]2N[C@H](C1)C2c1ccc(/C=C/c2ccccc2)cc1` (stereo partly specified), 15.2 µM.
In the case of `CN(C)c1ccc(N=Nc2nc3ccccc3n2C)cc1`, the AC35 is 8.63 µM.
The result for `COc1ccc(S(=O)(=O)N2CC[C@@H]3[C@H](CO)Nc4ccc(-c5ccc(C#N)cc5)cc4[C@@H]32)cc1` reads 4.23 µM; that for `O=C(NC(c1ccc(F)cc1)c1ccc2ccccc2n1)C1CCN(Cc2cccc(C(F)(F)F)c2)CC1` (stereo unspecified), 14.6 µM.
For the molecule `CCCCCCCCNC(C)C(O)c1ccc(SC(C)C)cc1` (stereo unspecified), the AC35 was 5.92 µM.
The result for `C[C@H](O)C#Cc1ccc2c(c1)O[C@@H](CN(C)Cc1ccc(-c3ccccc3)cc1)[C@H](C)CN([C@@H](C)CO)S2(=O)=O` reads 5.46 µM and 7.12 µM; that for `Cc1nn(Cc2ccccc2Cl)c2sc(C(=O)Nc3ccccc3N3CCOCC3)cc12`, 13.5 µM.
With `N/C(=C\C(=O)c1cc(Cl)ccc1O)C(Cl)(Cl)Cl`, the AC35 was 4 µM.
The same measure for `O=C(O)c1ccccc1C(=O)Nc1ccc(Oc2cccc3ccccc23)cc1`: 18.9 µM; for `N#CC1=C(N)Oc2cc(N)ccc2C1c1cccc(Br)c1` (stereo unspecified): 0.505 µM; for `C[C@H]1CN([C@@H](C)CO)S(=O)(=O)c2ccc(C#Cc3ccncc3)cc2O[C@@H]1CN(C)C(=O)Nc1ccc2c(c1)OCO2`: 0.64 µM.
Turning to `OC[C@H]1O[C@@H](n2cnc3c(NCc4ccco4)ncnc32)[C@H](O)[C@@H]1O`, the AC35 was 3.68 µM.
The result for `Oc1[nH]c2ccc(Br)cc2c1N=NC(=S)N1CCOCC1` reads 0.236 µM; that for `COc1cc2c(cc1NC(=O)CN(C)Cc1ccc(OC)c(OC)c1)oc1ccccc12`, 21.5 µM.
The same measure for `O=C(c1nnsc1S(=O)c1ccc(Cl)cc1)N1CCOCC1` (stereo unspecified): 5.46 µM; for `Cc1ccccc1S(=O)(=O)N1CC[C@@H]2[C@@H](CO)Nc3ccc(-c4ccc(C#N)cc4)cc3[C@@H]21`: 4.47 µM; for `CC1=NN(c2ccccc2)C(=O)/C1=C\C=C\c1ccccc1`: 3.99 µM.
The same measure for `COC(=O)C[C@@H]1CC[C@@H]2[C@@H](COc3ccc(NC(=O)Nc4ccc(C#N)cc4)cc3C(=O)N2C)O1`: 9.7 µM; for `CCOc1cc(N2CCC(O)CC2)ccc1Nc1ncc2c(n1)N(C)c1ccccc1C(=O)N2C`: 21 µM; for `COC(=O)C[C@@H]1CC[C@@H]2[C@@H](COc3ccc(NC(=O)Nc4ccccc4C)cc3C(=O)N2C)O1`: 19.7 µM.
For `CCCCCCCN(c1ccccc1)[C@@H]1C[C@H]2CCCC(=O)N3CC[C@@H](C1)[C@@H]23`, the AC35 is 10.2 µM.
The same measure for `CC(=O)OC1CC(OC2C(O)CC(OC3C(O)CC(OC4CCC5(C)C(CCC6C5CC(O)C5(C)C(C7=CC(=O)OC7)CCC65O)C4)OC3C)OC2C)OC(C)C1OC1OC(CO)C(O)C(O)C1O` (stereo unspecified): 0.244 µM; for `C[C@@H]1CN([C@H](C)CO)C(=O)c2cccc(N(C)C)c2O[C@@H]1CN(C)Cc1ccc(C(=O)Nc2ccccc2N)cc1`: 19.6 µM; for `CC(C)N1C/C(=C/c2ccsc2)C(=O)/C(=C/c2ccsc2)C1`: 5.27 µM.
As for `Cc1ccc(S(=O)(=O)Nc2ccc3c(c2)C(=O)N([C@@H](C)CO)C[C@@H](C)[C@H](CN(C)Cc2ccc(C(F)(F)F)cc2)OCCCC[C@H](C)O3)cc1`, the AC35 is 12.1 µM.
`C[C@@H]1CN([C@@H](C)CO)S(=O)(=O)c2ccc(C#CC(C)(C)O)cc2O[C@H]1CN(C)Cc1ccc(-c2ccccc2)cc1`: the AC35 was 5.75 µM.
The result for `CN(C)C(=S)N=Nc1[nH]c2ccccc2c1O` reads 11.1 µM.
The result for `COc1cc2c(OC(C)=O)c3c(c(-c4ccc5c(c4)OCO5)c2cc1OC)C(=O)OC3` reads 0.0216 µM.
For the molecule `C=C1C(=O)[C@@]23[C@H](O)C[C@@H]4C(C)(C)CC[C@H](O)[C@@]4(C)[C@@H]2CC[C@@H]1[C@H]3O`, the AC35 is 3.15 µM.
The result for `CCCCNC1=CC(=O)C(=O)c2ccccc21` reads 2.77 µM; that for `Cc1ccc(C(C(=O)NCc2ccco2)N(C(=O)CNC(=O)c2cccs2)c2c(C)cc(C)cc2C)cc1` (stereo unspecified), 14.6 µM.
The same measure for `C[C@@H]1CN([C@H](C)CO)S(=O)(=O)c2ccc(C#Cc3ccncc3)cc2O[C@@H]1CN(C)C(=O)Nc1ccc2c(c1)OCO2`: 19.4 µM; for `COC(=O)C1=C(C)N(Cc2ccccc2C(F)(F)F)C(=NCc2ccc(OC)cc2)NC1c1ccc(C(F)(F)F)cc1` (stereo unspecified): 13.1 µM.
As to `COc1ccc(/C=C/C(=O)c2cc(F)ccc2OC(=O)c2ccccc2OC)cc1OC`, the AC35 is 4.54 µM.
The result for `COc1ccc(CC(N)c2csc(NC(=O)Nc3cccc(C(F)(F)F)c3)n2)cc1` (stereo unspecified) reads 6.74 µM; that for `O=C1NC2C(=CC(O)C(O)C2O)c2cc3c(cc21)OCO3` (stereo unspecified), 0.837 µM; that for `O=C(CCc1ccccc1)NC(c1cccs1)c1cc(Cl)c2cccnc2c1O` (stereo unspecified), 0.694 µM.
The same measure for `COC(=O)C1=C(C)N(Cc2cccc(C(F)(F)F)c2)C(=NCc2ccc(OC)cc2)NC1c1cccc(F)c1` (stereo unspecified): 4.46 µM; for `C[C@H]1O[C@@H](O[C@H]2[C@@H](O)C[C@H](O[C@H]3[C@@H](O)C[C@H](O[C@H]4CC[C@@]5(C)[C@H](CC[C@@H]6[C@@H]5C[C@@H](O)[C@]5(C)[C@@H](C7=CC(=O)OC7)CC[C@]65O)C4)O[C@@H]3C)O[C@@H]2C)C[C@H](O)[C@@H]1O`: 0.173 µM; for `CCc1cccc2c(C(=O)CN3C(=O)NC4(CCCCC4)C3=O)c[nH]c12`: 8.95 µM.
As to `N#CC(=C1C=CC(=NO)C(Cl)=C1)c1ccccc1`, the AC35 is 5.59 µM.
